Measurements reported in patent US20230256190A1, “Methods Of Administering High Concentrations Of Nitric Oxide” (Mallinckrodt Hospital Products IP Unlimited Company, priority 2012, published 2023).

What was measured:
healthy subjects [1] = experiment: Multiple-dose, single-blind, placebo-controlled tolerance study of pulsed nitric oxide: adverse events; format: in vivo, human; conditions: for Total % with any AE: 72 h pulsed inhalation
Method: (§1) A multiple-dose, single-blind, placebo-controlled, tolerance study of pulsed volumes of nitric oxide was completed using healthy subjects. An objective of the study was to determine safe dosing limits of inhaled nitric oxide delivered via a pulse system at cylinder concentrations of 100, 400, and 800 ppm and gas volumes ranging from 4 to 60 mL/breath at dose rates ranging from 17 to 166 μg of NO/sec. Yet another objective of the study was to determine the safety profile, including adverse events (AEs), vital signs and laboratory parameters.
(§2) Six subjects were assigned to each cohort (5 NO, 1 placebo) in a randomized, single-blind fashion. All subjects received 72 hours of continuous inhalation. A total of 22 cohorts were evaluated, with NO doses ranging from 125 to 1500 nmol/breath at delivery concentrations of 100, 400, or 800 ppm and varying volumes (4 to 60 mL per breath) in a matrix design, as shown in Table 1. Vital signs and safety laboratory were evaluated. Blood samples for determination of methemoglobin (MetHb) in venous blood, were collected for 72 hours at selected time points.
(§3) Primary safety evaluations included: (1) qualitative assessment of local nasal tolerability via a scoring system (0 to 3); and (2) formation of MetHb (compared with a standard of 7%) following varying concentrations and volumes of pulsed doses of NO. Safety evaluations included assessments of adverse events (AEs), medical history, physical examinations, vital signs, electrocardiograms (ECGs) and laboratory assessments at baseline and during the study period.
(§4) All evaluations were performed on the ‘Safety’ population, defined as all subjects who were enrolled and treated with any amount of study drug. Descriptive statistics included mean, standard deviation (SD), range, median, CV %, geometric mean and geometric CV %.
(§5) For analysis purposes, cohorts that received the same dose of NO but different cylinder concentrations and volumes were pooled, thereby creating 15 dose levels (n=14 active NO and 1 placebo, from all dose groups combined). These 15 dose levels were grouped into 4 dose analysis groups: placebo, low-dose NO (1-500 nmol/breath), mid-dose NO (501-1000 nmol/breath), and high-dose NO (1001-1500 nmol/breath).

healthy subjects [2] = experiment: Local nasal tolerability scoring (0 to 3) during 72 hours of pulsed nitric oxide inhalation; format: in vivo, human; conditions: for Local tolerability Mean Score / Percent of Subjects Experiencing Nasal Irritation: 72 hours
Method: as §1
as §2, with “All subjects received 72 hours of continuous inhalation.” left out, “Blood samples for determination of methemoglobin (MetHb) in venous blood, were collected for 72 hours at selected time points.” left out
as §3, §4, §5
For analysis purposes, cohorts that received the same dose rate of administration of NO but different cylinder concentrations, doses and volumes were pooled, thereby creating 6 dose rate of administration levels (n=5 active NO and 1 placebo, from all rate of administration groups combined). The dose rate of administration of NO was calculated as the product of the flow rate of NO and the cylinder NO concentration.

[3] = NO 501-1000 nmol/breath (N = 45)
[4] = NO 1001-1500 nmol/breath (N = 15)

## [N]=O [NO, Nitric oxide]
Healthy subjects [1]; NO 1-500 nmol/breath (N = 50)
  Back pain (% of subjects): 6.0%
  Headache (% of subjects): 8.0%
  Nausea (% of subjects): 2.0%
  Total % with any AE: 28.0%
Healthy subjects [1]; [3]
  Back pain (% of subjects): 4.4%
  Headache (% of subjects): 4.4%
  Nausea (% of subjects): 4.4%
  Total % with any AE: 33.3%
Healthy subjects [1]; [4]
  Back pain (% of subjects): 0.0%
  Headache (% of subjects): 20.0%
  Nausea (% of subjects): 6.7%
  Total % with any AE: 53.3%
Healthy subjects [1]; across dose, cylinder concentration and volume cohorts
  Overall incidence of AEs: only dose related
Healthy subjects [1]; high-dose NO group (1001-1500 nmol/breath), one subject
  Subjects withdrawn due to chest discomfort, decreased O2 saturation, and dyspnea: 6.7%
Healthy subjects [2]; cylinder concentration 100 ppm
  Local tolerability Mean Score: 0.10
Healthy subjects [2]; cylinder concentration 400 ppm
  Local tolerability Mean Score: 0.09
Healthy subjects [2]; cylinder concentration 800 ppm
  Local tolerability Mean Score: 0.33
Healthy subjects [2]; dose group 125 nmol/breath, score 0 to 3
  Local tolerability Mean Score: 0.07
Healthy subjects [2]; dose group 250 nmol/breath, score 0 to 3
  Local tolerability Mean Score: 0.00
Healthy subjects [2]; dose group 340 nmol/breath, score 0 to 3
  Local tolerability Mean Score: 0.10
Healthy subjects [2]; dose group 420 nmol/breath, score 0 to 3
  Local tolerability Mean Score: 0.00
Healthy subjects [2]; dose group 500 nmol/breath, score 0 to 3
  Local tolerability Mean Score: 0.10
Healthy subjects [2]; dose group 585 nmol/breath, score 0 to 3
  Local tolerability Mean Score: 0.40
Healthy subjects [2]; dose group 670 nmol/breath, score 0 to 3
  Local tolerability Mean Score: 0.00
Healthy subjects [2]; dose group 750 nmol/breath, score 0 to 3
  Local tolerability Mean Score: 0.00
Healthy subjects [2]; dose group 840 nmol/breath, score 0 to 3
  Local tolerability Mean Score: 0.60
Healthy subjects [2]; dose group 920 nmol/breath, score 0 to 3
  Local tolerability Mean Score: 0.00
Healthy subjects [2]; dose group 1000 nmol/breath, score 0 to 3
  Local tolerability Mean Score: 0.33
Healthy subjects [2]; dose group 1160 nmol/breath, score 0 to 3
  Local tolerability Mean Score: 0.40
Healthy subjects [2]; dose group 1340 nmol/breath, score 0 to 3
  Local tolerability Mean Score: 0.20
Healthy subjects [2]; dose group 1500 nmol/breath, score 0 to 3
  Local tolerability Mean Score: 0.75
Healthy subjects [2]; dosing rate 17 μg NO/sec
  Percent of Subjects Experiencing Nasal Irritation: 0%
Healthy subjects [2]; dosing rate 21 μg NO/sec
  Percent of Subjects Experiencing Nasal Irritation: 10.0%
Healthy subjects [2]; dosing rate 33 μg NO/sec
  Percent of Subjects Experiencing Nasal Irritation: 10%
Healthy subjects [2]; dosing rate 83 μg NO/sec
  Percent of Subjects Experiencing Nasal Irritation: 10%
Healthy subjects [2]; dosing rate 167 μg NO/sec
  Percent of Subjects Experiencing Nasal Irritation: 36.4%
Healthy subjects [2]; pulse volume 4 mL/pulse
  Local tolerability Mean Score: 0.00
Healthy subjects [2]; pulse volume 8 mL/pulse
  Local tolerability Mean Score: 0.00
Healthy subjects [2]; pulse volume 10 mL/pulse
  Local tolerability Mean Score: 0.20
Healthy subjects [2]; pulse volume 15 mL/pulse
  Local tolerability Mean Score: 0.10
Healthy subjects [2]; pulse volume 20 mL/pulse
  Local tolerability Mean Score: 0.00
Healthy subjects [2]; pulse volume 25 mL/pulse
  Local tolerability Mean Score: 0.60
Healthy subjects [2]; pulse volume 30 mL/pulse
  Local tolerability Mean Score: 0.07
Healthy subjects [2]; pulse volume 35 mL/pulse
  Local tolerability Mean Score: 0.40
Healthy subjects [2]; pulse volume 40 mL/pulse
  Local tolerability Mean Score: 0.10
Healthy subjects [2]; pulse volume 45 mL/pulse
  Local tolerability Mean Score: 0.33
Healthy subjects [2]; pulse volume 50 mL/pulse
  Local tolerability Mean Score: 0.00
Healthy subjects [2]; pulse volume 55 mL/pulse
  Local tolerability Mean Score: 0.00
Healthy subjects [2]; pulse volume 60 mL/pulse
  Local tolerability Mean Score: 0.30
Healthy subjects [2]; doses less than 420 nmol/breath (about 0.4 mg/kg/hr), 48 hours of continuous administration
  Nasal irritation: no evidence of nasal irritation
Healthy subjects [2]; doses less than 420 nmol/breath, at 72 hours
  Nasal tolerability compared with placebo: no different than for placebo
Healthy subjects [2]; doses less than 420 nmol/breath, at 72 hours, placebo 3/18
  Subjects with nasal redness: 2/18
Healthy subjects [2]; dosing rate of 166 μg g/sec, including a case of nasal ulceration
  Incidence of nasal irritation: higher incidence of nasal irritation
Healthy subjects [2]; dosing rates up to 166 μg/sec, 72 hours pulsed dosing
  Nasal tolerability compared with placebo: not different from placebo
